Source: patent US7951789B2 (priority 2006, dated 2011)
Values joined by “and” are separate entries in the source; they are usually repeats but may differ in a detail not shown here. Equal values may be shown once. Read-outs that look alike come from different tables or passages of the source.

Key:
[1] = test system: wild-type HBV (secreted virions); test: Anti-HBV activity in HBV virions via endogenous polymerase assay (EPA); format: cell-based; settings: Hepatitis B virus, read-out: Virion EC50 (μM)
Protocol: (§1) Compounds were tested in an anti-HBV assay. Determination of anti-HBV activity in HBV virions and nucleocapsids via endoenous polymerase assays (EPA)
(§2) • 1. 12-well collagen-I coated plates were seeded with producer cells expressing wild-type HBV at a density of 0.5-1×10^6 cells per well in 2 ml growth/selection media. • 2. Drug stock solutions were made up freshly in 100% DMSO as 200× stocks. Five additional 4-fold dilutions were prepared from these 200× stock in 100% DMSO. For each experiment, 4 aliquots of each drug dilution series were stored at −20° C. until used. • 3. Once cells reached confluency (1 day after cells were seeded), drug treatment was initiated by adding 10 μl of drug dilution into 2 ml of fresh growth/selection media. […] The no-drug control wells received only 10 μl of DMSO in fresh media. • 4. Cells were treated every-other-day with 2 ml of fresh drug/medium for a total of 8 days. Cell lysates were then collected on day 10 and subjected to EPA analysis as described below. Preparation of Nucleocapsid-Containing Lysates for Epa Analysis • 1. Cells were grown for 3 to 4 days in 12-well collagen-I coated plates until confluent. • 2. Media was carefully aspirated and the cell monolayers were rinsed once with 1 ml of PBS. • 3. One ml of lysis buffer (50 mM Tris-HCl pH 7.5/150 mM NaCl/5 mM MgCl2/0.2% NP-40) was added to each well. Plates were stored on ice for 30 min to 4 h. • 4. Lysed cells were transferred to 1.5 ml-microfuge tubes. • 5. Lysates were clarified by spinning at 14,000 rpm for 5 min at room temperature. • 6. Clarified lysates were transferred to fresh tubes and immediately frozen on dry-ice, then stored at −80° C. until endogenous polymerase assays were performed as described below. Preparation of Secreted Virions from Supernatant for Epa Analysis • 1. Cells were grown for 3 to 4 days in 12-well collagen-I coated plates until confluent. • 2. Media was carefully aspirated and transferred to 1.5 ml-microfuge tubes. • 3. Supernatants were clarified by spinning at 14,000 rpm for 5 min at room temperature. • 4. Clarified supernatants were transferred to fresh tubes and immediately frozen on dry-ice, then stored at −80° C. until endogenous polymerase assays were performed essentially as described below. Endogenous Polymerase Assay (EPA) of Cell Lysates and Supernatants • 1. EPAs were performed essentially as described by Seifer et al (1998). Intracellular HBV nucleocapsids were immunoprecipitated from the cytoplasmic lysates overnight at 4° C. with a polyclonal rabbit anti-HBcAg antibody and immobilized on protein A sepharose CL-4B beads. Secreted virions were immunoprecipitated from clarified cell supernatants overnight at 4° C. with a monoclonal mouse anti-LS antibody (MA18/7) in the absence of detergent. • 2. Following 3 washes of the immobilized capsids or virions with 1 ml of EPA wash buffer (75 mM NH4Cl, 50 mM Tris-HCl pH 7.4, 1 mM EDTA), endogenous polymerase reactions were initiated by adding 50 μl of detergent-containing EPA cocktail (50 mM Tris-HCl pH7.4, 75 mM NH4Cl, 1 mM EDTA, 20 mM MgCl2, 0.1 mM β-ME, 0.5% NP-40, 100 μM cold dGTP, TTP, dCTP, and 50 nM ^33P-dATP) and incubated overnight at 37° C. The detergent is required to strip the outer envelope from immunoprecipitated virions as well as to enhance permeability of the nucleocapsids. • 3. Following digestion with 1 mg/ml of proteinase K for 1 h at 37° C., endogenously ^33P-labeled HBV DNA was liberated via phenol/chloroform extraction. • 4. The nucleic acids were precipitated with 1 volume of 5M NH4-acetate and 2.5 volumes of 100% EtOH, and then separated on a 1% native agarose gel in Tris-borate-EDTA buffer. • 5. Gels were blotted onto positively charged nylon membrane overnight at room temperature via capillary transfer in 0.4 N NaOH. • 6. Dried membranes were exposed to a Phosphorlmager screen (GE Healthcare) overnight at room temperature, then scanned (Storm 860, GE Healthcare) and quantitated with ImageQuant software (GE Healthcare). • 7. […]

[2] = test system: wild-type HBV (intracellular nucleocapsids); test: Anti-HBV activity in HBV nucleocapsids (RI) via endogenous polymerase assay (EPA); format: cell-based; settings: Hepatitis B virus
Protocol: as §1, §2

[3] = In vivo studies in rat: distribution of A550 and LddATP in the liver; settings: male rats
Protocol: Distribution of NM-204 (the compound of Example 1 (Hydroxy-tBuSATE N-benzylphosphoramidate derivative of L-ddA) (A550) in the rat liver was evaluated following a single intravenous (I.V.) or oral administration of A550 (NM-204) at a dose of 20 (oral) or 10 (I.V.) mg/Kg body weight. The dose solutions were prepared on the same day prior to dose administration.
At the specified time point (1 and 3 hours for IV animals or 1, 3 and 8 hours for oral animals), each animal was euthanized by CO2 gas followed by exsanguination via the abdominal vein. Livers were collected immediately after sacrifice, flash frozen in liquid nitrogen, placed on dry ice, and later stored at −70° C., before being analyzed.
Control rat liver samples were taken from whole frozen livers (Bioreclamation, Inc. Hicksville, N.Y.) with the aid of a tissue coring utensil (Harris Unicore, 8.0 mm, VWR,). Each ˜0.1 g sample was placed in individual 2 mL poly vials with 0.940 mL of 80% MeOH/20% DIH2O and homogenates were prepared using a mechanical tissue disruptor (Tissue Master, Omni-International, Inc, Marietta Ga.). The vials received a 10 μl aliquot of a working stock solution and a 50 μl aliquot of the ISTD before vortexing for ˜30 sec. The mixtures were stored overnight at −20° C. and the next day were removed for 10 min of centrifugation in a benchtop centrifuge. Each supernatant was transferred to individual centrifugation filtration units (0.45 μm) and the resulting filtrates were transferred to HPLC vials for the LC/MS/MS analysis. The final concentrations of ddATP in the calibration standards was 1000, 500, 250, 125, 50, and 0 pmol/ml. Each calibration standard was directly injected in a 50 μL volume onto the ion-exchange column for analysis. Standard curve analysis of calibration standards from control liver extracts was conducted.
Analysis of ddATP was done by an ion-exchange chromatography method with on-line positive ionization ESI-MS/MS detection in multiple reaction monitoring (MRM) detection mode. […] This is equivalent to a range of […] per gram liver by the sample preparation employed. The HPLC MS MS conditions described in Example 5 were utilized.

[4] = Cytotoxicity evaluation in GS4.1 cells (Cell Titer 96 AQueous One Solution); format: cell-based; settings: human
Protocol: (§3) Huh-7 cells containing HCV Conl subgenomic replicon (GS4.1 cells), (C. Seeger; Fox Chase University, Philadelphia, Pa., USA), are grown in Dulbecco's Modified Eagle Medium (DMEM) supplemented with 10% fetal bovine serum (FBS), 2 mM L-glutamine, 110 mg/L sodium pyruvate, 1×non-essential amino acids, 100 U/mL penicillin-streptomycin and 0.5 mg/mL G418 (Invitrogen). For dose-response testing, the cells are seeded in 96-well plates at 7.5×10^3 cells/well in a volume of 50 μL and incubated at 37° C./5% CO2. Three hours after plating, 50 μL of ten 2-fold serial dilutions of compounds (highest concentration, 75 μM) are added and cell cultures were incubated at 37° C./5% CO2 in the presence of 0.5% DMSO. Alternatively, compounds are tested at a single concentration of 15 μM. In all cases, Huh-7 cells lacking the HCV replicon served as negative control. The cells are incubated in the presence of compounds for 72 hours after which they were monitored for expression of the NS4A protein by enzyme-linked immunosorbent assay (ELISA). For this, the plates were then fixed for 1 min with 1:1 acetone:methanol, washed twice with phosphate-buffered saline (PBS), 0.1% Tween 20, blocked for 1 hour at room temperature with TNE buffer containing 10% FBS and then incubated for 2 h at 37° C. with the anti-NS4A mouse monoclonal antibody A-236 (ViroGen) diluted in the same buffer. After washing three times with PBS, 0.1% Tween 20, the cells are incubated 1 hour at 37° C. with anti-mouse immunoglobulin G-peroxidase conjugate in TNE, 10% FBS. After washing as described above, the reaction is developed with O-phenylenediamine (Zymed). The reaction is stopped after 30 minutes with […] and the absorbance is read at 492 nm using a Sunrise Tecan spectrophotometer. EC50 values are determined from the % inhibition versus concentration data using a sigmoidal non-linear regression analysis based on four parameters with Tecan Magellan software. […] For cytotoxicity evaluation, GS4.1 cells are treated with compounds as described above and cellular viability was monitored using a Cell Titer 96 AQueous One Solution Cell Proliferation Assay (Promega). CC50 values are determined from the % cytotoxicity versus concentration data with Tecan Magellan software as described above.

[5] = test system: HCV Conl subgenomic replicon (GS4.1 cells); test: HCV replicon assay (NS4A ELISA, HCV ELISA 2); format: cell-based; settings: Hepatitis C virus
Protocol: as §3

[6] = wild-type HBV producer cell line, intracellular nucleocapsids, EPA, read-out: RI EC50
[7] = IV dose 10 mg/kg, 1 hr, individual animals, 10 mg/kg
[8] = IV dose 10 mg/kg, 3 hrs, individual animals, 10 mg/kg
[9] = Oral dose 20 mg/kg, 1 hr, individual animals, 20 mg/kg
[10] = Oral dose 20 mg/kg, 3 hrs, individual animals, 20 mg/kg
[11] = Oral dose 20 mg/kg, 8 hrs, individual animals, 20 mg/kg

In the case of `CC(C)(CO)C(=O)SCCOP(=O)(NCc1ccccc1)OC[C@@H]1CC[C@H](n2cnc3c(N)ncnc32)O1` (stereo partly drawn) [C819 (NM 177)], the EC50 [1] is reported as 1 to 10 µM and the EC50 [2, 6] is reported as 1 to 10 µM.

`CC(C)(CO)C(=O)SCCOP(=O)(NCc1ccccc1)OC[C@H]1CC[C@@H](n2cnc3c(N)ncnc32)O1` (stereo partly drawn) [A550 (NM 204)] showed an EC50 [1] of under 1 µM and an EC50 [2, 6] of under 1 µM.

`CC(C)NP(=O)(OCCSC(=O)C(C)(C)CO)OC[C@H]1CC[C@@H](n2cnc3c(N)ncnc32)O1` (stereo partly drawn) [Example C791] showed an EC50 [1] of 1 to 10 µM.

`CC(C)NP(=O)(OCCSC(=O)C(C)(CO)CO)OC[C@@H]1CC[C@H](n2cnc3c(N)ncnc32)O1` (stereo partly drawn) [A362 (NM 77)] gave an EC50 [1] of 1 to 10 µM and an EC50 [2, 6] of 1 to 10 µM.

With “Hydroxy-tBuSATE N-benzylphosphoramidate derivative of L-ddA [A550 (Ex 1)]” the “Concentration Compound (A550) (Ex 1) in liver” value (from here on “Concentration Compound (A550)”) ([3]; IV dose 10 mg/kg, 1 hr, Mean) was 80.0 pmol/g liver, the “Concentration Compound (A550)” value [3, 7] was 65.8 pmol/g liver and 89.1 pmol/g liver and 85.1 pmol/g liver and the “Concentration ddA-TP in liver” value [3, 7] was 2025 pmol/g liver and 1930 pmol/g liver and 1355 pmol/g liver. For the same molecule, the “Concentration ddA-TP in liver” value ([3]; IV dose 10 mg/kg, 1 hr, individual animals, hepatocellularity 114 × 10^6 cells per gram liver, 10 mg/kg) was 17.8 pmol/10^6 cells and 16.9 pmol/10^6 cells and 11.9 pmol/10^6 cells, the “Concentration Compound (A550)” value ([3]; IV dose 10 mg/kg, 3 hrs, Mean) was 27.9 pmol/g liver and the “Concentration Compound (A550)” value [3, 8] was 28.3 pmol/g liver and 26.0 pmol/g liver and 29.3 pmol/g liver. The “Concentration ddA-TP in liver” value [3, 8] was 1345 pmol/g liver and 11.8 pmol/10^6 cells and 1940 pmol/g liver and 17.0 pmol/10^6 cells and 2990 pmol/g liver and 26.2 pmol/10^6 cells, the “Concentration Compound (A550)” value ([3]; Oral dose 20 mg/kg, 1 hr, Mean) was 251 pmol/g liver and the “Concentration Compound (A550)” value [3, 9] was 411 pmol/g liver and 272 pmol/g liver and 70.2 pmol/g liver. The “Concentration ddA-TP in liver” value [3, 9] was 210 pmol/g liver and 1.8 pmol/10^6 cells and 575 pmol/g liver and 5.0 pmol/10^6 cells and 400 pmol/g liver and 3.5 pmol/10^6 cells, the “Concentration Compound (A550)” value ([3]; Oral dose 20 mg/kg, 3 hrs, Mean) was 204 pmol/g liver and the “Concentration Compound (A550)” value [3, 10] was 360 pmol/g liver and 92.1 pmol/g liver and 161 pmol/g liver. For the same molecule, the “Concentration ddA-TP in liver” value [3, 10] was 200 pmol/g liver and 1.8 pmol/10^6 cells and 330 pmol/g liver and 2.9 pmol/10^6 cells and 405 pmol/g liver and 3.6 pmol/10^6 cells, the “Concentration Compound (A550)” value ([3]; Oral dose 20 mg/kg, 8 hrs, Mean) was 20.1 pmol/g liver and the “Concentration Compound (A550)” value [3, 11] was 16.4 pmol/g liver and 28 pmol/g liver and 16.2 pmol/g liver. For the same molecule, the “Concentration ddA-TP in liver” value [3, 11] was 280 pmol/g liver and 2.5 pmol/10^6 cells and 805 pmol/g liver and 5.2 pmol/10^6 cells and 275 pmol/g liver and 2.4 pmol/10^6 cells.

In the case of `Cc1cn([C@@H]2CC(O)[C@H](CO)O2)c(=O)[nH]c1=O` (stereo partly drawn) [L-dT, Telbivudine, reference compound], the EC50 [2, 6] is reported as under 1 µM.

In the case of `CC(C)NP(=O)(OCCSC(=O)C(C)(C)CO)OC[C@@H]1CC[C@H](n2cnc3c(N)ncnc32)O1` (stereo partly drawn) [A348 (NM 48)], the EC50 [1] is reported as under 1 µM.

`CC(C)N(C(C)C)P(=O)(OCCSC(=O)C(C)(C)CO)OC[C@@H]1CC[C@H](n2cnc3c(N)ncnc32)O1` (stereo partly drawn) [A616 (NM 128)] gave an EC50 ([2]; read-out: RI EC50 (μM)) of 1 to 10 µM.

Work on `CC(C)(CO)C(=O)SCCOP(=O)(NCc1ccccc1)OC[C@H]1O[C@@H](n2cnc3c(=O)[nH]c(N)nc32)[C@]2(C)OC(=O)O[C@H]12` (stereo in doubt) [Example B307, N-Benzylaminyl-O-(hydroxy-tert-butyl-S-acyl-2-thioethyl)-2′,3′-O-carbonate-2′-C-methylguanosin-5′-yl phosphate] yielded a CC50 ([4]; 72 hours) of over 75000 nM and an EC50 ([5]; GS4.1 cells, 72 hours, NS4A ELISA, read-out: HCV ELISA 2 EC50) of under 1 µM.

In the case of `CC(C)(CO)C(=O)SCCOP(=O)(OC[C@H]1O[C@@H](n2ccc(N)nc2=O)[C@](C)(O)[C@@H]1O)N1CCCC1` (mixture of isomers) [Example B395, Hydroxy-tBuSATE N-pyrrolidinephosphosphoramidate Derivative of 2′-C-methylcytidine], the CC50 at 72 h [4] is reported as over 75000 nM and the EC50 ([5]; 72 h, read-out: HCV ELISA 2 EC50 (μM)) is reported as 1 to 10 µM.
